# From patent US9133206B2, “Benzodiazepine and pyridodiazepine derivatives” (AbbVie Inc., priority 2010, dated 2015)
# How the values were obtained:
# [1] = test system: mouse model of multiple sclerosis; conditions: in vivo administration; cited from earlier work
# [2] = test system: SK-N-SH human neuroblastoma cells; assay: Serum Deprivation/JC-1 Mitochondrial Membrane Potential (MMP) Assay; format: cell-based; conditions: Homo sapiens; for activation at 3 µM: single dose 3 μM, JC-1 ratio normalized to peak value for 10 μM dimebolin (n=2-4), read-out: JC-1 max % (@ 3 μM); for activation at 3 µM / Emax: serum deprivation; for EC50 / Emax: SK-N-SH; for EC50: 18 h, serum deprivation ~18 hours, JC-1 ratio normalized to peak value for 10 μM dimebolin, single curve fit to mean data of n=2-3; for Emax: percent maximal intensity in JC-1 ratio normalized to peak value for 10 μM dimebolin, read-out: JC-1 max %
# In short: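 SK-N-SH cells serum-deprived ~18 h with compound, then stained with JC-1 for 40 min at 37 °C; red (560/595 nm) to green (485/535 nm) ratio reports membrane potential. Response normalized to peak from 10 μM dimebolin; EC50 from fit to mean of n=2–3, or single-dose 3 μM; DMSO ≤1%.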
# [3] = test system: patients with mild-to-moderate Alzheimer's disease; conditions: 20 mg three times a day (60 mg/day); cited from earlier work
SMILES,activation at 3 µM [2] [%],EC50 [2] [µM],Emax [2] [%],also measured
"O=C1C=C(c2ccccc2)C(=O)N1c1cccc(Cl)c1 [1-(3-chlorophenyl)-3-phenyl-pyrrole-2,5-dione]",,,,development of the disease [1]: significantly prevented the development of the disease
"COCCN(C)C(=O)N1Cc2ccccc2N2CCN(Cc3ccccc3)CC2C1 (stereo not drawn) [Example 149, 3-benzyl-N-(2-methoxyethyl)-N-methyl-1,2,3,4,4a,5-hexahydropyrazino[1,2-a][1,4]benzodiazepine-6(7H)-carboxamide]",218,,,
"O=C(NCCc1cccnc1)N1Cc2ccccc2N2CCN(Cc3ccccc3)CC2C1 (stereo not drawn) [Example 150, 3-benzyl-N-[2-(pyridin-3-yl)ethyl]-1,2,3,4,4a,5-hexahydropyrazino[1,2-a][1,4]benzodiazepine-6(7H)-carboxamide]",212,,,
"O=C(NCCc1ccccn1)N1Cc2ccccc2N2CCN(Cc3ccccc3)CC2C1 (stereo not drawn) [Example 151, 3-benzyl-N-[2-(pyridin-2-yl)ethyl]-1,2,3,4,4a,5-hexahydropyrazino[1,2-a][1,4]benzodiazepine-6(7H)-carboxamide]",,1.8,163,
"O=C(NCCc1ccncc1)N1Cc2ccccc2N2CCN(Cc3ccccc3)CC2C1 (stereo not drawn) [Example 152, 3-benzyl-N-[2-(pyridin-4-yl)ethyl]-1,2,3,4,4a,5-hexahydropyrazino[1,2-a][1,4]benzodiazepine-6(7H)-carboxamide]",,3.08,239,
"N#CCCN(C(=O)N1Cc2ccccc2N2CCN(Cc3ccccc3)CC2C1)C1CC1 (stereo not drawn) [Example 153, 3-benzyl-N-(2-cyanoethyl)-N-cyclopropyl-1,2,3,4,4a,5-hexahydropyrazino[1,2-a][1,4]benzodiazepine-6(7H)-carboxamide]",68,,,
"NCCc1cn(C(=O)N2Cc3ccccc3N3CCN(Cc4ccccc4)CC3C2)cn1 (stereo not drawn) [Example 154, [4-(2-aminoethyl)-1H-imidazol-1-yl](3-benzyl-1,2,3,4,4a,5-hexahydropyrazino[1,2-a][1,4]benzodiazepin-6(7H)-yl)methanone]",49,,,
"O=C(NCc1ccncc1)N1Cc2ccccc2N2CCN(Cc3ccccc3)CC2C1 (stereo not drawn) [Example 155, 3-benzyl-N-(pyridin-4-ylmethyl)-1,2,3,4,4a,5-hexahydropyrazino[1,2-a][1,4]benzodiazepine-6(7H)-carboxamide]",75,,,
"Cc1ccc(CNC(=O)N2Cc3ccccc3N3CCN(Cc4ccccc4)CC3C2)o1 (stereo not drawn) [Example 156, 3-benzyl-N-[(5-methyl-2-furyl)methyl]-1,2,3,4,4a,5-hexahydropyrazino[1,2-a][1,4]benzodiazepine-6(7H)-carboxamide]",,2.4,152,
"CCN(CCOC)C(=O)N1Cc2ccccc2N2CCN(Cc3ccccc3)CC2C1 (stereo not drawn) [Example 157, 3-benzyl-N-ethyl-N-(2-methoxyethyl)-1,2,3,4,4a,5-hexahydropyrazino[1,2-a][1,4]benzodiazepine-6(7H)-carboxamide]",264,,,
"CCN(CC)C(=O)N1Cc2ccccc2N2CCN(Cc3ccccc3)CC2C1 (stereo not drawn) [Example 158, 3-benzyl-N,N-diethyl-1,2,3,4,4a,5-hexahydropyrazino[1,2-a][1,4]benzodiazepine-6(7H)-carboxamide]",,1.02,181,
"O=C(Nc1nccs1)N1Cc2ccccc2N2CCN(Cc3ccccc3)CC2C1 (stereo not drawn) [Example 159, 3-benzyl-N-(1,3-thiazol-2-yl)-1,2,3,4,4a,5-hexahydropyrazino[1,2-a][1,4]benzodiazepine-6(7H)-carboxamide]",64,,,
"O=C(NCC1CC1)N1Cc2ccccc2N2CCN(Cc3ccccc3)CC2C1 (stereo not drawn) [Example 160, 3-benzyl-N-(cyclopropylmethyl)-1,2,3,4,4a,5-hexahydropyrazino[1,2-a][1,4]benzodiazepine-6(7H)-carboxamide]",,0.645,245,
"CC(C)N1CCN(C(=O)N2Cc3ccccc3N3CCN(Cc4ccccc4)CC3C2)CC1 (stereo not drawn) [Example 161, (3-benzyl-1,2,3,4,4a,5-hexahydropyrazino[1,2-a][1,4]benzodiazepin-6(7H)-yl)(4-isopropylpiperazin-1-yl)methanone]",,3.18,218,
"CC(C)CNC(=O)N1Cc2ccccc2N2CCN(Cc3ccccc3)CC2C1 (stereo not drawn) [Example 162, 3-benzyl-N-isobutyl-1,2,3,4,4a,5-hexahydropyrazino[1,2-a][1,4]benzodiazepine-6(7H)-carboxamide]",194,,,
"O=C(NCc1cccnc1)N1Cc2ccccc2N2CCN(Cc3ccccc3)CC2C1 (stereo not drawn) [Example 163, 3-benzyl-N-(pyridin-3-ylmethyl)-1,2,3,4,4a,5-hexahydropyrazino[1,2-a][1,4]benzodiazepine-6(7H)-carboxamide]",183,,,
"CN(C)CCCNC(=O)N1Cc2ccccc2N2CCN(Cc3ccccc3)CC2C1 (stereo not drawn) [Example 164, 3-benzyl-N-[3-(dimethylamino)propyl]-1,2,3,4,4a,5-hexahydropyrazino[1,2-a][1,4]benzodiazepine-6(7H)-carboxamide]",93,,,
"CCCCN(CC#N)C(=O)N1Cc2ccccc2N2CCN(Cc3ccccc3)CC2C1 (stereo not drawn) [Example 165, 3-benzyl-N-butyl-N-(cyanomethyl)-1,2,3,4,4a,5-hexahydropyrazino[1,2-a][1,4]benzodiazepine-6(7H)-carboxamide]",251,,,
"COCCCNC(=O)N1Cc2ccccc2N2CCN(Cc3ccccc3)CC2C1 (stereo not drawn) [Example 166, 3-benzyl-N-(3-methoxypropyl)-1,2,3,4,4a,5-hexahydropyrazino[1,2-a][1,4]benzodiazepine-6(7H)-carboxamide]",,0.765,181,
"COCCNC(=O)N1Cc2ccccc2N2CCN(Cc3ccccc3)CC2C1 (stereo not drawn) [Example 167, 3-benzyl-N-(2-methoxyethyl)-1,2,3,4,4a,5-hexahydropyrazino[1,2-a][1,4]benzodiazepine-6(7H)-carboxamide]",63,,,
"O=C(NCc1ccccn1)N1Cc2ccccc2N2CCN(Cc3ccccc3)CC2C1 (stereo not drawn) [Example 168, 3-benzyl-N-(pyridin-2-ylmethyl)-1,2,3,4,4a,5-hexahydropyrazino[1,2-a][1,4]benzodiazepine-6(7H)-carboxamide]",259,,,
"O=C(NC1CCC1)N1Cc2ccccc2N2CCN(Cc3ccccc3)CC2C1 (stereo not drawn) [Example 169, 3-benzyl-N-cyclobutyl-1,2,3,4,4a,5-hexahydropyrazino[1,2-a][1,4]benzodiazepine-6(7H)-carboxamide]",,0.816,173,
"CCCN(C)C(=O)N1Cc2ccccc2N2CCN(Cc3ccccc3)CC2C1 (stereo not drawn) [Example 170, 3-benzyl-N-methyl-N-propyl-1,2,3,4,4a,5-hexahydropyrazino[1,2-a][1,4]benzodiazepine-6(7H)-carboxamide]",273,,,
"O=C(N1CCCCC1)N1Cc2ccccc2N2CCN(Cc3ccccc3)CC2C1 (stereo not drawn) [Example 171, (3-benzyl-1,2,3,4,4a,5-hexahydropyrazino[1,2-a][1,4]benzodiazepin-6(7H)-yl)(piperidin-1-yl)methanone]",,2.45,251,
"O=C1C2CNCCN2c2ccccc2CN1CC1CC1 (stereo not drawn) [Example 172, 6-(cyclopropylmethyl)-2,3,4,4a,6,7-hexahydropyrazino[1,2-a][1,4]benzodiazepin-5(1H)-one]",0,,,
"CN1CCN2c3ccccc3CN(C3CCN(C(=O)c4ccccc4)CC3)CC2C1 (stereo not drawn) [Example 173, [4-(3-methyl-1,2,3,4,4a,5-hexahydropyrazino[1,2-a][1,4]benzodiazepin-6(7H)-yl)piperidin-1-yl](phenyl)methanone]",68,,,
"CN1CCN2c3ccccc3CN(C(=O)c3ccccc3Cl)CC2C1 (stereo not drawn) [Example 174, (2-chlorophenyl)(3-methyl-1,2,3,4,4a,5-hexahydropyrazino[1,2-a][1,4]benzodiazepin-6(7H)-yl)methanone]",41,,,
"CN1CCN2c3ccccc3CN(C(=O)c3cccc(Cl)c3)CC2C1 (stereo not drawn) [Example 175, (3-chlorophenyl)(3-methyl-1,2,3,4,4a,5-hexahydropyrazino[1,2-a][1,4]benzodiazepin-6(7H)-yl)methanone]",40,,,
"CN1CCN2c3ccccc3CN(C(=O)c3ccc(Cl)cc3)CC2C1 (stereo not drawn) [Example 176, (4-chlorophenyl)(3-methyl-1,2,3,4,4a,5-hexahydropyrazino[1,2-a][1,4]benzodiazepin-6(7H)-yl)methanone]",40,,,
Cc1ccc2c(c1)c1c(n2CCc2ccc(C)nc2)CCN(C)C1 [dimebolin],,,,"clinical course of disease (ADAS-Cog, improvement over baseline) [3]: significant improvement in the clinical course of disease"
